Assays:
TNFα = TNFα dosage by ELISA in supernatant of sensitized/stimulated RBL-2H3 cells; type: cell-based, rat; conditions: positive control 20 µM
Experimental: The anti-inflammatory action was instead evaluated, always in the same cell line, by measuring the ability of the sample to inhibit the release of tumor necrosis factor alpha (TNFα).
(§1) The RBL-2H3 cells were first sensitized and then stimulated to induce degranulation.
(§2) The test was conducted on RBL-2H3 cells grown in DMEM (Dulbecco's modified Eagle medium) containing 10% fetal bovine serum (FBS) and 1% antibiotics (penicillin and streptomycin) and incubated in standard culture conditions (37°C, 5% CO2). RBL-2H3 cells are widely used in allergy and immunology research, as, like mast cells, they express FCεRI and, following cross-linking between IgE bound to FCεRI and allergens, they undergo degranulation. In this way, therefore, they simulate the behavior of mast cells and basophils in their response to an immunological stimulus.
The supernatant recovered from the cells was also used for the dosage of TNFα performed by ELISA (Enzyme-Linked Immunosorbent Assay), a very widespread biochemical technique used for the quantification of proteins and peptides. In an ELISA assay, a specific […] for TNFα is immobilized on a solid surface (the bottom of a well) to which the assay medium is added. Detection is done by means of a biotinylated secondary antibody and then reacted with streptavidin-HRP. The colorimetric reaction is proportional to the amount of TNFα present. The results are read by spectrophotometer at 450 nm. The values obtained were then interpolated into a standard curve of TNFα.
The absorbance (optical density, OD) measured at 450 nm is directly proportional to the amount of TNFα produced by the tissues. To calculate the concentrations of TNFα, the OD values obtained were interpolated into a standard curve of TNFα. The percentages were calculated with respect to the non-sensitized and non-stimulated cells (NS). The values are expressed as means ± standard deviation. Statistical processing of the data was performed by Student's t-test. Values of p<0.05 are considered significant. […]

RBL-2H3 cells = assay: evaluation of degranulation (β-hexosaminidase release) in sensitized/stimulated RBL-2H3 cells; type: cell-based, rat; conditions: positive control 20 µM
Experimental: To evaluate the efficacy of a mixture M according to the invention, the following in vitro study was conducted. The antiallergic activity of the tested sample of mixture M was evaluated by measuring its ability to prevent degranulation processes in a rat leukemia cell line (RBL-2H3), widely used as a model simulating mast cells in immunological and allergological studies.
as §1
as §2, with “In this way, therefore, they simulate the behavior of mast cells and basophils in their response to an immunological stimulus.” left out
The medium was then recovered and separated from the cells and incubated with 4-nitrophenyl-N-acetyl-β-D-glucosamide. The reaction was stopped with carbonate buffer and the absorbance was measured by spectrophotometric reading at 405 nm. Degranulation was calculated as the percentage of β-hexosaminidase relative to non-sensitized (NS) cells as follows: Degranulation (%) = (ODX)/(ODNS)⋅100 [formula] […]

C=C1CC[C@H]2C(=C)CC[C@H]3C(=C)C(=O)O[C@@H]3[C@@H]12 [PC, Dehydrocostolactone]
TNFα (% vs NS) (TNFα): 183.4%
TNFα (TNFα; RBL-2H3 supernatant): 200.3 pg/mL
protezione (% vs NC) (TNFα; reduction in TNFα release): 19.5%
β-hexosaminidase (% vs NS) (RBL-2H3 cells; RBL-2H3, anti-DNP IgE / DNP-HSA): 244.8%
protection (% vs NC) (RBL-2H3 cells; reduction in degranulation): 80.8%
